The results in this text go back to patent US20170368089A1, “COMPOSITION FOR PREVENTING OR TREATING COLITIS” (UNIVERSITY-INDUSTRY COOPERATION GROUP OF KYUNG HEE …, priority 2012, published 2017).

Holding throughout (assay type): in vivo, ICR male mice
The test system of one assay is IL-1 beta. The experiment in a line: IL-1 beta expression in colon tissue (ELISA), TNBS colitis, first experiment. As to conditions: Table 5 (group 2), TNBS-treated mice, 3 days. As for the experimental part:
(§1) Among the experimental groups, one group was set as a normal group, and for the experimental animals in other groups, colitis was induced with 2,4,6-trinitrobenzenesulfonic acid (TNBS). In detail, after lightly anesthetizing the experimental animals with ether, 0.1 ml of the solution prepared by mixing […] of 2,4,6-Trinitrobenzene sulfonic acid (NBS) solution with 50% ethanol was injected into the colon through the anus using a syringe having 1 ml volume and oval point, respectively; and then, the syringe was vertically picked up, and then, maintained for 30 seconds to induce the inflammation. Meanwhile, 0.1 ml of normal saline solution was orally administered to the normal group. Since then, from the next day, the sample dissolved in normal saline solution was orally administered in the volume that was decided in advance one time a day for 3 days. At the next day after completing the sample administration, the experimental animals were suffocated to death with carbon dioxide, the colon from appendix to the region just before the anus was removed from the colon region.
(§2) 250 μl of RIPA butter including protease inhibitor cocktail was added to 100 mg of the colon tissue of experimental animal, and then, the colon tissue was homogenized. Since then, the homogenized colon tissue was centrifuged under the conditions of 4° C. and 13000 rpm for 15 minutes to obtain supernatant. While the supernatant was stored at −80° C., the expression amounts of IL-1 beta, IL-6, and TNF-alpha were measured using a 96-well ELISA plate kits (Pierce Biotechology, Inc., Rockford, Ill., USA).

Another assay relates to Myeloperoxidase (MPO). The experiment in a line: MPO activity of colon tissue (mouse MPO ELISA kit), TNBS colitis, first experiment. The note with it: Table 3 (group 2), TNBS-treated mice, 3 days. The procedure: as §1
200 μl of lysis buffer was added to 100 mg of colon tissue, and then, the colon tissue was homogenized. Since then, the homogenized colon tissue was centrifuged under the conditions of 4° C. and 13000 rpm for 15 minutes, and then, the supernatant thereof was obtained. In the supernatant, the MPO activity was measured using a mouse MPO assay ELISA kit (Hbt HK210, USA). 100 μl of the supernatant was added in a 96 well plate, and then, reacted at room temperature for 1 hour. After completing the reaction, the plate was overturned and emptied; was repeatedly washed three times with 200 μl of washing buffer solution; 100 μl of diluted tracer was added thereto; and then the reaction was performed at room temperature for 1 hour. After completing the reaction, the plate was overturned and emptied; and then each well in the plate was washed using 200 μl of washing buffer solution. After repeatedly performing the washing processes three times using 200 μl of washing buffer solution, 100 μl of diluted streptavidin-peroxidase conjugate was added thereto, and then, the reaction was performed at room temperature for 1 hour. After completing the reaction, the plate was overturned and emptied, and then, each well in the plate was washed with 200 μl of washing buffer solution. After the washing processes were repeatedly performed three times using 200 μl of washing buffer solution, 100 μl of TMB substrate solution was added thereto; the plate was wrapped in an aluminum foil to block out the light; and then, the reaction was performed at room temperature for 30 minutes. Since then, 100 μl of a stop solution was added to stop the reaction, and then, the absorbance was measured at 450 nm using an ELISA reader.
(An ELISA detects its analyte on a solid surface through an enzyme-linked reagent.)

The test system of another assay is IL-6. The experiment in a line: IL-6 expression in colon tissue (ELISA), TNBS colitis, first experiment. As to conditions: Table 5 (group 2), TNBS-treated mice, 3 days. As for the experimental part:
as §1, §2

For assay [1], the system named is model animal with acute colitis induced by TNBS. Kind of assay: Acute colitis induced by TNBS in mice, appearance analysis of colon (colon length, macroscopic score), first experiment. As to conditions: Table 3 (group 2), TNBS-treated mice, 3 days; for Macroscopic score (Mean score): score 0-5. As for the experimental part:
4-week ICR male mice (24 to 27 g) were purchased from OrientBio. All the mice were bred under the controlled environmental conditions of 50±10% of humidity and 25±2° C. of temperature, and the lighting was repeatedly on for 12 hours and off for 12 hours. A feed for a standard experiment (Samyang, Korea) was used as a feed, and water was freely taken. For all the experiments, one group was 6 mice. […] Meanwhile, 0.1 ml of normal saline solution was orally administered to the normal group. Since then, from the next day, the sample dissolved in normal saline solution was orally administered in the volume that was decided in advance one time a day for 3 days. At the next day after completing the sample administration, the experimental animals were suffocated to death with carbon dioxide, the colon from appendix to the region just before the anus was removed from the colon region. The scores about the removed colons were estimated by observing the appearances and the lengths of the colons according to the following criteria (Hollenbach, and the like, the criteria about the level of colon in 2005) as listed in Table 1. […] In addition, some of the content in the colon was collected in order to analyze the rumen microorganisms, and then, was stored in a freezer of −80° C. From the tissue of colon, the content in the colon was completely removed and then the tissue of colon was washed with normal saline solution. Since then, some of the tissue was fixed with 4% formaldehyde fixing solution in order to be used as a sample for a histopathological examination, and the rest was stored in a freezer of −80° C. for a molecular biological analysis.

The next assay deals with TNF-alpha. Kind of assay: TNF-alpha expression in colon tissue (ELISA), TNBS colitis, first experiment. As to conditions: Table 5 (group 2), TNBS-treated mice, 3 days. The procedure: as §1, §2
Assay [2] concerns model animal with acute colitis induced by TNBS. Kind of assay: Acute colitis induced by TNBS in mice: weight change, macroscopic score, colon length, MPO activity, 4th experiment (Timosaponin A-III). As to conditions: FIGS. 38 to 41; 10 and 20 mg/mouse kg orally. As for the experimental part:
4-week ICR male mice (24 to 27 g) were purchased from OrientBio. All the mice were bred under the controlled environmental conditions of 50±10% of humidity and 25±2° C. of temperature, and the lighting was repeatedly on for 12 hours and off for 12 hours. A feed for a standard experiment (Samyang, Korea) was used as a feed, and water was freely taken. For all the experiments, one group was 6 mice.
(2) Induction of acute colitis by TNBS and sample administration Among the experimental groups, one group was set as a normal group, and for the experimental animals in other groups, colitis was induced with 2,4,6-trinitrobenzenesulfonic acid (TNBS). […]
The sample administration to the model animals with acute colitis induced by TNBS was stopped, and at the next day, the weights of the experimental animals were measured, and then, the measured weights were compared with the initial weights to calculate the change amounts of weights […]
200 μl of lysis buffer was added to 100 mg of colon tissue, and then, the colon tissue was homogenized. […] In the supernatant, the MPO activity was measured using a mouse MPO assay ELISA kit (Hbt HK210, USA). […]

Take `O=c1c2cc(O)c(O)cc2oc2cc(O)c([C@@H]3O[C@H](CO)[C@@H](O)[C@H](O)[C@H]3O)c(O)c12` [mangiferin, Mangiferin]: the IL-1 beta conc. in the assay on IL-1 beta (10 mg/kg orally) came out at 57.4 ± 2.1 pg/mg; in the assay with IL-1 beta (20 mg/kg orally), 28.1 ± 12.1 pg/mg. The MPO activity with Myeloperoxidase (MPO) (10 mg/kg orally) came to 0.5 ± 0.2 μUnit/mg; in the assay on Myeloperoxidase (MPO) (20 mg/kg orally), 0.2 ± 0.2 μUnit/mg. The IL-6 conc. in the assay with IL-6 (10 mg/kg orally) is 5.0 ± 0.6 pg/mg; with IL-6 (20 mg/kg orally), 2.2 ± 0.8 pg/mg. Also, the Colon length in assay [1] (10 mg/kg orally) is recorded as 5.81 ± 0.09 cm; in assay [1] (20 mg/kg orally), 6.98 ± 0.21 cm. Moreover, the entries for the “Macroscopic score (Mean score)” value in assay [1] (10 mg/kg orally) and in assay [1] (20 mg/kg orally) were 2.7 ± 0.45 and 1.7 ± 0.27, respectively. Besides, the TNF-alpha conc. in the assay on TNF-alpha (10 mg/kg orally) came out at 83.8 ± 10.9 pg/mg; with TNF-alpha (20 mg/kg orally), 40.8 ± 10.9 pg/mg.
Consider `C[C@H]1CC[C@@]2(OC1)O[C@H]1C[C@H]3[C@@H]4CC[C@@H]5C[C@@H](O[C@@H]6O[C@H](CO)[C@H](O)[C@H](O)[C@H]6O[C@@H]6O[C@H](CO)[C@@H](O)[C@H](O)[C@H]6O)CC[C@]5(C)[C@H]4CC[C@]3(C)[C@H]1[C@@H]2C` [Timosaponin A-III], for which, in assay [2], the “effect on alleviating or improving acute colitis induced by TNBS (weight change, macroscopic score, colon length, MPO activity; in words)” value was “effect on alleviating or improving acute colitis induced by TNBS according to the concentration dependent”.
Regarding `O=c1c2cc(O[C@@H]3O[C@H](CO)[C@@H](O)[C@H](O)[C@H]3O)c(O)cc2oc2cc(O)c([C@@H]3O[C@H](CO)[C@@H](O)[C@H](O)[C@H]3O)c(O)c12` [neomangiferin, Neomangiferin], in the assay on IL-1 beta (10 mg/kg orally), the IL-1 beta conc. turned out to be 62.2 ± 5.1 pg/mg. This molecule returned an MPO activity with Myeloperoxidase (MPO) (10 mg/kg orally) of 0.6 ± 0.2 μUnit/mg. In the assay on IL-6 (10 mg/kg orally), this molecule registered an IL-6 conc. of 6.9 ± 1.2 pg/mg. Further, in assay [1] (10 mg/kg orally), the Colon length was found to be 5.78 ± 0.10 cm and the “Macroscopic score (Mean score)” value is given as 2.8 ± 0.51. Further, the TNF-alpha conc. in the assay with TNF-alpha (10 mg/kg orally) was determined as 93.6 ± 9.2 pg/mg.
